For test [1], the target named is T1, human GCGR (Homo sapiens, UniProt P47871).
T1 construct: expressed in transfected cells; kept under Blasticidin and Hygromycin selection
Nature of the test: cAMP activity assay, cells expressing human GCGR. The test is classed as cell-based. Conditions: for EC50: cAMP production, cells expressing human GCGR, assay buffer with or without 20% human serum (not stated which), read-out: GCGR EC50 human; for hGCGR/hGLP1R (hTone): ratio of human GCGR EC50 to human GLP1R EC50. The procedure, abridged: (§1)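 cAMP production in human GLP1R- or GCGR-expressing cells was read by luminescence after overnight dark incubation at room temperature. Peptides were given as 10-point DMSO dilution series, with native GLP-1 and glucagon as references. Four-parameter logistic fitting gave EC50.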
Background: cAMP levels reflect the balance of adenylyl cyclase and phosphodiesterase activity.

The target of test [2] is T2, human GLP1R (Homo sapiens, UniProt P43220).
T2 construct: expressed in transfected cells; kept under Blasticidin and Hygromycin selection
Nature of the test: cAMP activity assay, cells expressing human GLP1R. The test is classed as cell-based. Conditions: cAMP production, assay buffer with or without 20% human serum (not stated which). The procedure, abridged:
as §1

The text below walks through data of patent publication US11492385B2, “Long-acting co-agonists of the glucagon and GLP-1 receptors” (Merck Sharp & Dohme Corp., priority 2015, dated 2022).

Starred links: 1 amine or outer side, 2 acyl side, 3 side chain; linkers in the order of their positions; H or OH if unused. Non-standard residues stand in square brackets, D forms with d. Residues, ends and D or L forms follow the SMILES beside them. Groups on a side chain read outwards from the residue. *: point of attachment. Phe(4-CH2NH2) = NCc1ccc(C[C@H](N)C(=O)O)cc1; C18 diacid = O=C(O)CCCCCCCCCCCCCCCCC(=O)*; C17 diacid = O=C(O)CCCCCCCCCCCCCCCC(=O)*; C16 diacid = O=C(O)CCCCCCCCCCCCCCC(=O)*; γGlu = O=C(O)[C@H](CCC(=O)[*:2])N[*:1]; C14 diacid = O=C(O)CCCCCCCCCCCCC(=O)*; Met(O2) = CS(=O)(=O)CC[C@H](N)C(=O)O; AEEA = NCCOCCOCC(=O)O; Aib = CC(C)(N)C(=O)O

T2 sequence (P43220 24-463): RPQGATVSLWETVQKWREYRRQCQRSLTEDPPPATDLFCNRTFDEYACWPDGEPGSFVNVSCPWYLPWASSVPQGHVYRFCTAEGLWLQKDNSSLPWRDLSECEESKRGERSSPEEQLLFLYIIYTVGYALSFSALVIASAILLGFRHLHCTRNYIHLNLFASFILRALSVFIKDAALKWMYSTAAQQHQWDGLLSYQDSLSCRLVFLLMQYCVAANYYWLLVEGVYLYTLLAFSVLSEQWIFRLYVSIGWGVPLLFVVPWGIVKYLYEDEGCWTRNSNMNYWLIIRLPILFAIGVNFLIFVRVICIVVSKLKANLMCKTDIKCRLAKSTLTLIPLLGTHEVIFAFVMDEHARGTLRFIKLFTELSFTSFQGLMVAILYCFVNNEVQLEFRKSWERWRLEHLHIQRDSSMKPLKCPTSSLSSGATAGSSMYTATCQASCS
T1 sequence (P47871 26-477): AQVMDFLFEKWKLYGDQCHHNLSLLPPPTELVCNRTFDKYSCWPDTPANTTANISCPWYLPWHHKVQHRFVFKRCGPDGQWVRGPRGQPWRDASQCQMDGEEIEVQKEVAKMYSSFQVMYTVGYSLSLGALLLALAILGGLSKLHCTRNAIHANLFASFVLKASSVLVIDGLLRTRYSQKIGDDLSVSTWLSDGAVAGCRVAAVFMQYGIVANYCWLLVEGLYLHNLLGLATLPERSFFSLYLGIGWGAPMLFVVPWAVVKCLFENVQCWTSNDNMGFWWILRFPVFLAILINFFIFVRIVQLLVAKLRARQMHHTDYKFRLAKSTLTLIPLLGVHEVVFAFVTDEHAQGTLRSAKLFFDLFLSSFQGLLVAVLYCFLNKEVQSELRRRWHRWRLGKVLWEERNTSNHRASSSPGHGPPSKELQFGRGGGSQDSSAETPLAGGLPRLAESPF

In general, EC50 refers to the midpoint of the concentration-response curve. As for `CC(C)C[C@H](NC(=O)[C@H](Cc1c[nH]c2ccccc12)NC(=O)[C@H](CCC(N)=O)NC(=O)[C@@H](NC(=O)[C@H](Cc1ccccc1)NC(=O)[C@H](CC(=O)O)NC(=O)[C@H](CCC(N)=O)NC(=O)[C@H](C)NC(=O)[C@H](C)NC(=O)[C@H](CCCNC(=N)N)NC(=O)C(C)(C)NC(=O)[C@H](CC(=O)O)NC(=O)[C@H](CC(C)C)NC(=O)[C@H](Cc1ccc(O)cc1)NC(=O)[C@H](CCCCNC(=O)COCCOCCNC(=O)COCCOCCNC(=O)CC[C@H](NC(=O)CCCCCCCCCCCCCCCCC(=O)O)C(=O)O)NC(=O)[C@H](CO)NC(=O)[C@H](Cc1ccc(O)cc1)NC(=O)[C@H](CC(=O)O)NC(=O)[C@H](CO)NC(=O)[C@@H](NC(=O)[C@H](Cc1ccccc1)NC(=O)[C@@H](NC(=O)CNC(=O)[C@H](CCC(N)=O)NC(=O)C(C)(C)NC(=O)[C@@H](N)Cc1c[nH]cn1)[C@@H](C)O)[C@@H](C)O)C(C)C)C(=O)N[C@@H](CCS(C)(=O)=O)C(=O)N[C@@H](CC(=O)O)C(=O)N[C@H](C(N)=O)[C@@H](C)O` [compound 5] (H-H[Aib]QGTFTSDYSK([AEEA-AEEA-γGlu-C18 diacid])YLD[Aib]RAAQDFVQWL[Met(O2)]DT-NH2), the EC50 was 0.97 nM in test [1] and 0.11 nM in test [2]. For the same compound, in test [1], the “hGCGR/hGLP1R (hTone)” value is listed as 8.80.

In the case of `CC(C)C[C@H](NC(=O)[C@H](Cc1c[nH]c2ccccc12)NC(=O)[C@H](CCCCNC(=O)COCCOCCNC(=O)COCCOCCNC(=O)CC[C@H](NC(=O)CCCCCCCCCCCCCCCCC(=O)O)C(=O)O)NC(=O)[C@@H](NC(=O)[C@H](Cc1ccccc1)NC(=O)[C@H](CC(=O)O)NC(=O)[C@H](CCC(N)=O)NC(=O)[C@H](C)NC(=O)[C@H](C)NC(=O)[C@H](CCCNC(=N)N)NC(=O)C(C)(C)NC(=O)[C@H](CC(=O)O)NC(=O)[C@H](CC(C)C)NC(=O)[C@H](Cc1ccc(O)cc1)NC(=O)[C@H](CCCCN)NC(=O)[C@H](CO)NC(=O)[C@H](Cc1ccc(O)cc1)NC(=O)[C@H](CC(=O)O)NC(=O)[C@H](CO)NC(=O)[C@@H](NC(=O)[C@H](Cc1ccccc1)NC(=O)[C@@H](NC(=O)CNC(=O)[C@H](CCC(N)=O)NC(=O)C(C)(C)NC(=O)[C@@H](N)Cc1c[nH]cn1)[C@@H](C)O)[C@@H](C)O)C(C)C)C(=O)N[C@@H](CCS(C)(=O)=O)C(=O)N[C@@H](CC(=O)O)C(=O)N[C@H](C(N)=O)[C@@H](C)O` [compound 68] (H-H[Aib]QGTFTSDYSKYLD[Aib]RAAQDFVK([AEEA-AEEA-γGlu-C18 diacid])WL[Met(O2)]DT-NH2), in test [1], the EC50 came out at 0.595 nM and the “hGCGR/hGLP1R (hTone)” value turned out to be 0.7. The compound further came in with a 50% effective concentration (EC50) in test [2] of 0.866 nM.

As to `CC(C)C[C@H](NC(=O)[C@H](Cc1ccc(O)cc1)NC(=O)[C@H](CCCCN)NC(=O)[C@H](CO)NC(=O)[C@H](Cc1ccc(O)cc1)NC(=O)[C@H](CC(=O)O)NC(=O)[C@H](CO)NC(=O)[C@@H](NC(=O)[C@H](Cc1ccccc1)NC(=O)[C@@H](NC(=O)CNC(=O)[C@H](CCC(N)=O)NC(=O)[C@@H](CO)NC(=O)[C@@H](N)Cc1c[nH]cn1)[C@@H](C)O)[C@@H](C)O)C(=O)N[C@@H](CC(=O)O)C(=O)N[C@@H](C)C(=O)N[C@@H](CCCNC(=N)N)C(=O)N[C@@H](C)C(=O)N[C@@H](C)C(=O)N[C@@H](CCC(N)=O)C(=O)N[C@@H](CCCCNC(=O)COCCOCCNC(=O)COCCOCCNC(=O)CC[C@H](NC(=O)CCCCCCCCCCCCCCC(=O)O)C(=O)O)C(=O)N[C@@H](Cc1ccccc1)C(=O)N[C@H](C(=O)N[C@@H](CCC(N)=O)C(=O)N[C@@H](Cc1c[nH]c2ccccc12)C(=O)N[C@@H](CC(C)C)C(=O)N[C@@H](CCS(C)(=O)=O)C(=O)N[C@@H](CC(=O)O)C(=O)N[C@H](C(N)=O)[C@@H](C)O)C(C)C` [compound 15] (H-H[dS]QGTFTSDYSKYLDARAAQK([AEEA-AEEA-γGlu-C16 diacid])FVQWL[Met(O2)]DT-NH2), the EC50 in test [1] is 0.01 nM; in test [2] it was 0.22 nM. Besides, the “hGCGR/hGLP1R (hTone)” value in test [1] turned out to be 0.07.

Take `CC(C)C[C@H](NC(=O)[C@H](Cc1c[nH]c2ccccc12)NC(=O)[C@H](CCC(N)=O)NC(=O)[C@@H](NC(=O)[C@H](Cc1ccccc1)NC(=O)[C@H](CC(=O)O)NC(=O)[C@H](CCC(N)=O)NC(=O)[C@H](C)NC(=O)[C@H](C)NC(=O)[C@H](CCCNC(=N)N)NC(=O)C(C)(C)NC(=O)[C@H](CC(=O)O)NC(=O)[C@H](CC(C)C)NC(=O)[C@H](Cc1ccc(O)cc1)NC(=O)[C@H](Cc1ccc(CNC(=O)COCCOCCNC(=O)COCCOCCNC(=O)CC[C@H](NC(=O)CCCCCCCCCCCCCCC(=O)O)C(=O)O)cc1)NC(=O)[C@H](CO)NC(=O)[C@H](Cc1ccc(O)cc1)NC(=O)[C@H](CC(=O)O)NC(=O)[C@H](CO)NC(=O)[C@@H](NC(=O)[C@H](Cc1ccccc1)NC(=O)[C@@H](NC(=O)CNC(=O)[C@H](CCC(N)=O)NC(=O)C(C)(C)NC(=O)[C@@H](N)Cc1c[nH]cn1)[C@@H](C)O)[C@@H](C)O)C(C)C)C(=O)N[C@@H](CCS(C)(=O)=O)C(=O)N[C@@H](CC(=O)O)C(=O)N[C@H](C(N)=O)[C@@H](C)O` [compound 25] (H-H[Aib]QGTFTSDYS[Phe(4-CH2NH2)]([AEEA-AEEA-γGlu-C16 diacid])YLD[Aib]RAAQDFVQWL[Met(O2)]DT-NH2): in test [1], the EC50 came to 0.32 nM and the “hGCGR/hGLP1R (hTone)” value is 14.00. For the same compound, it took 0.02 nM to reach a half-maximal effect in test [2] (EC50).

For `CC(C)C[C@H](NC(=O)[C@H](Cc1ccc(O)cc1)NC(=O)[C@H](CCCCN)NC(=O)[C@H](CO)NC(=O)[C@H](Cc1ccc(O)cc1)NC(=O)[C@H](CC(=O)O)NC(=O)[C@H](CO)NC(=O)[C@@H](NC(=O)[C@H](Cc1ccccc1)NC(=O)[C@@H](NC(=O)CNC(=O)[C@H](CCC(N)=O)NC(=O)C(C)(C)NC(=O)[C@@H](N)Cc1c[nH]cn1)[C@@H](C)O)[C@@H](C)O)C(=O)N[C@@H](CC(=O)O)C(=O)N[C@@H](C)C(=O)N[C@@H](CCCNC(=N)N)C(=O)N[C@@H](C)C(=O)N[C@@H](C)C(=O)N[C@@H](CCCCNC(=O)COCCOCCNC(=O)COCCOCCNC(=O)CC[C@H](NC(=O)CCCCCCCCCCCCC(=O)O)C(=O)O)C(=O)N[C@@H](CC(=O)O)C(=O)N[C@@H](Cc1ccccc1)C(=O)N[C@H](C(=O)N[C@@H](CCC(N)=O)C(=O)N[C@@H](Cc1c[nH]c2ccccc12)C(=O)N[C@@H](CC(C)C)C(=O)N[C@@H](CCS(C)(=O)=O)C(=O)N[C@@H](CC(=O)O)C(=O)N[C@H](C(N)=O)[C@@H](C)O)C(C)C` [compound 49] (H-H[Aib]QGTFTSDYSKYLDARAAK([AEEA-AEEA-γGlu-C14 diacid])DFVQWL[Met(O2)]DT-NH2), in test [1], the EC50 worked out at 0.04 nM and the “hGCGR/hGLP1R (hTone)” value was found to be 1.91. For the same compound, a half-maximal response in test [2] (EC50) required 0.02 nM.

Turning to `CC(C)C[C@H](NC(=O)[C@H](Cc1ccc(O)cc1)NC(=O)[C@H](CCCCN)NC(=O)[C@H](CO)NC(=O)[C@H](Cc1ccc(CNC(=O)COCCOCCNC(=O)COCCOCCNC(=O)CC[C@H](NC(=O)CCCCCCCCCCCCCCC(=O)O)C(=O)O)cc1)NC(=O)[C@H](CC(=O)O)NC(=O)[C@H](CO)NC(=O)[C@@H](NC(=O)[C@H](Cc1ccccc1)NC(=O)[C@@H](NC(=O)CNC(=O)[C@H](CCC(N)=O)NC(=O)[C@@H](CO)NC(=O)[C@@H](N)Cc1c[nH]cn1)[C@@H](C)O)[C@@H](C)O)C(=O)N[C@@H](CC(=O)O)C(=O)N[C@@H](CCC(=O)O)C(=O)N[C@@H](CCCNC(=N)N)C(=O)N[C@@H](C)C(=O)N[C@@H](C)C(=O)N[C@@H](CCC(N)=O)C(=O)N[C@@H](CC(=O)O)C(=O)N[C@@H](Cc1ccccc1)C(=O)N[C@H](C(=O)N[C@@H](CCC(N)=O)C(=O)N[C@@H](Cc1c[nH]c2ccccc12)C(=O)N[C@@H](CC(C)C)C(=O)N[C@@H](CC(C)C)C(=O)N[C@@H](CCCCN)C(=O)N[C@H](C(N)=O)[C@@H](C)O)C(C)C` [compound 10] (H-H[dS]QGTFTSD[Phe(4-CH2NH2)]([AEEA-AEEA-γGlu-C16 diacid])SKYLDERAAQDFVQWLLKT-NH2; N-terminus assumed), in test [1], the EC50 came to 0.12 nM and the “hGCGR/hGLP1R (hTone)” value is recorded as 0.26. The same compound came in with a concentration for a half-maximal effect (EC50) in test [2] of 0.46 nM.

As for `CC(C)C[C@H](NC(=O)[C@H](Cc1ccc(O)cc1)NC(=O)[C@H](CCCCN)NC(=O)[C@H](CO)NC(=O)[C@H](Cc1ccc(O)cc1)NC(=O)[C@H](CC(=O)O)NC(=O)[C@H](CO)NC(=O)[C@@H](NC(=O)[C@H](Cc1ccccc1)NC(=O)[C@@H](NC(=O)CNC(=O)[C@H](CCC(N)=O)NC(=O)C(C)(C)NC(=O)[C@@H](N)Cc1c[nH]cn1)[C@@H](C)O)[C@@H](C)O)C(=O)N[C@@H](CC(=O)O)C(=O)N[C@@H](C)C(=O)N[C@@H](CCCNC(=N)N)C(=O)N[C@@H](C)C(=O)N[C@@H](C)C(=O)N[C@@H](CCC(N)=O)C(=O)N[C@@H](CCCCNC(=O)COCCOCCNC(=O)COCCOCCNC(=O)CC[C@H](NC(=O)CCCCCCCCCCCCCCCC(=O)O)C(=O)O)C(=O)N[C@@H](Cc1ccccc1)C(=O)N[C@H](C(=O)N[C@@H](CCC(N)=O)C(=O)N[C@@H](Cc1c[nH]c2ccccc12)C(=O)N[C@@H](CC(C)C)C(=O)N[C@@H](CCS(C)(=O)=O)C(=O)N[C@@H](CC(=O)O)C(=O)N[C@H](C(N)=O)[C@@H](C)O)C(C)C` [compound 48] (H-H[Aib]QGTFTSDYSKYLDARAAQK([AEEA-AEEA-γGlu-C17 diacid])FVQWL[Met(O2)]DT-NH2), in test [1], the EC50 was found to be 0.05 nM and the “hGCGR/hGLP1R (hTone)” value came out at 1.10. This compound also gave an EC50 in test [2] of 0.05 nM.
